The text below walks through data of US10035800B2 (AbbVie Inc., priority 2013, dated 2018).

One test deals with T1, BRD4 (BDI_K57-E168) (Homo sapiens, UniProt O60885).
T1 construct: BD1: amino acids K57-E168; made in house
Briefly: TR-FRET bromodomain binding assay, first bromodomain of BRD4. The settings on record: TR-FRET assay protocol G (compound 0.92 μM-15 pM); 100 nM probe. Summed up:
(§1)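 TR-FRET displacement of an Alexa647-labelled BET-inhibitor probe from His-tagged BRD4 BD1 or BD2 (8 nM), read via 1 nM Eu-anti-His antibody after 1 h at room temperature. Buffer was 20 mM sodium phosphate pH 6.0 with 2% DMSO. Probe was 100 nM for BDI and 30 nM for BDII. IC50 came from 4-parameter fits, and Ki from IC50, probe Kd and probe concentration.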

In another test the target is T2, BRD4 (BDII_E352-M457) (Homo sapiens, UniProt O60885).
T2 construct: protocol; made in house
Put plainly: TR-FRET bromodomain binding assay, second bromodomain of BRD4. The settings on record: TR-FRET assay protocol G (compound 0.92 μM-15 pM); 30 nM probe. Summed up: as §1
On the technique in general: In TR-FRET formats the signal depends on donor and acceptor labels being close together.

For test [1], the system named is breast cancer cell line MX-1. Put plainly: MX-1 cell line proliferation assay. The test is classed as cell-based. Conditions: MX-1 cells, 3-day proliferation assay, Cell Titer Glo; read-out: Cellular proliferation: EC50. Summed up: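 MX-1 cells at 5000/well, in RPMI 1640 with 10% FBS, were exposed to compounds for 3 days. Final concentrations ranged 3 μM–0.1 nM or 1 μM–0.03 nM, in 3-fold steps. Cell Titer Glo luminescence was normalized to DMSO and fitted sigmoidally for EC50; overall MSR 2.1.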

Molecules are shown by their SMILES. pEC50, pKi: −log10 of the molar value.

As a reminder, the pKi is the Ki on a negative log10 scale, so that one unit is a factor of ten. A lower pKi goes with a high Ki. Take `Cn1cc2c3c(c[nH]c3c1=O)CN(C(=O)Nc1c(F)cccc1F)c1ccc(CS(C)(=O)=O)cc1-2` [Example 70, N-(2,6-difluorophenyl)-10-methyl-7-((methylsulfonyl)methyl)-11-oxo-10,11-dihydro-1H-1,4,10-triazadibenzo[cd,f]azulene-4(3H)-carboxamide]: the pKi on BRD4 (BDI_K57-E168) was 8.13; at BRD4 (BDII_E352-M457), 8.73. For the same molecule, the pEC50 in test [1] was 6.88.
For the molecule `COC(=O)CCC1c2c[nH]c3c(=O)n(C)cc(c23)-c2cc(CS(C)(=O)=O)ccc2N1c1ccc(F)cc1F` (stereo not drawn) [Example 82, methyl 3-(4-(2,4-difluorophenyl)-10-methyl-7-((methylsulfonyl)methyl)-11-oxo-3,4,10,11-tetrahydro-1H-1,4,10-triazadibenzo[cd,f]azulen-3-yl)propanoate], the negative logarithm of the Ki (pKi) at BRD4 (BDI_K57-E168) is 7.88; on BRD4 (BDII_E352-M457), 8.95. In test [1], the pEC50 is 6.01.
In the same order, the values of `CCOC(=O)C1c2c[nH]c3c(=O)n(C)cc(c23)-c2cc(CS(C)(=O)=O)ccc2N1c1ccc(F)cc1` [Example 84, (R)-ethyl 4-(4-fluorophenyl)-10-methyl-7-((methylsulfonyl)methyl)-11-oxo-3,4,10,11-tetrahydro-1H-1,4,10-triazadibenzo[cd,f]azulene-3-carboxylate] are 8.65, 8.41 and 7.75.
Consider `CCOC(=O)C1c2c[nH]c3c(=O)n(C)cc(c23)-c2cc(CS(C)(=O)=O)ccc2N1c1ccc(F)cc1` [Example 85, (S)-ethyl 4-(4-fluorophenyl)-10-methyl-7-((methylsulfonyl)methyl)-11-oxo-3,4,10,11-tetrahydro-1H-1,4,10-triazadibenzo[cd,f]azulene-3-carboxylate], for which the pKi was 7.97 at BRD4 (BDI_K57-E168) and 7.95 on BRD4 (BDII_E352-M457). For the same molecule, the pEC50 in test [1] was 7.31.
Take `CCOC(=O)N1Cc2c[nH]c3c(=O)n(C)cc(c23)-c2cc(CS(C)(=O)=O)ccc21` [Example 87, ethyl 10-methyl-7-((methylsulfonyl)methyl)-11-oxo-10,11-dihydro-1H-1,4,10-triazadibenzo[cd,f]azulene-4(3H)-carboxylate]: the pKi is 8.60 at BRD4 (BDI_K57-E168) and 8.68 at BRD4 (BDII_E352-M457). The pEC50 in test [1] was 8.33.
Consider `Cn1cc2c3c(c[nH]c3c1=O)CN(C(=O)Oc1ccc3ccccc3c1)c1ccc(CS(C)(=O)=O)cc1-2` [Example 90, naphthalen-2-yl 10-methyl-7-((methylsulfonyl)methyl)-11-oxo-10,11-dihydro-1H-1,4,10-triazadibenzo[cd,f]azulene-4(3H)-carboxylate], for which the pKi is 8.88 at BRD4 (BDI_K57-E168) and 8.70 on BRD4 (BDII_E352-M457). Moreover, the pEC50 in test [1] was 7.51.
Consider `Cc1ccc(OC(=O)N2Cc3c[nH]c4c(=O)n(C)cc(c34)-c3cc(CS(C)(=O)=O)ccc32)cc1` [Example 91, p-tolyl 10-methyl-7-((methylsulfonyl)methyl)-11-oxo-10,11-dihydro-1H-1,4,10-triazadibenzo[cd,f]azulene-4(3H)-carboxylate], for which the pKi on BRD4 (BDI_K57-E168) is 8.49; on BRD4 (BDII_E352-M457), 8.94. In addition, the pEC50 in test [1] is 8.74.
On the same counts, the results for `Cn1cc2c3c(c[nH]c3c1=O)CN(C(=O)Oc1ccccc1)c1ccc(CS(C)(=O)=O)cc1-2` [Example 93, phenyl 10-methyl-7-((methylsulfonyl)methyl)-11-oxo-10,11-dihydro-1H-1,4,10-triazadibenzo[cd,f]azulene-4(3H)-carboxylate] are 8.55, 8.79 and 8.59.
In the case of `Cn1cc2c3c(c[nH]c3c1=O)CN(C(=O)Oc1ccc(F)cc1)c1ccc(CS(C)(=O)=O)cc1-2` [Example 94, 4-fluorophenyl 10-methyl-7-((methylsulfonyl)methyl)-11-oxo-10,11-dihydro-1H-1,4,10-triazadibenzo[cd,f]azulene-4(3H)-carboxylate], the negative-log Ki (pKi) was 8.22 at BRD4 (BDI_K57-E168) and 8.46 on BRD4 (BDII_E352-M457). In test [1], the pEC50 was 8.22.
Turning to `COc1ccccc1OC(=O)N1Cc2c[nH]c3c(=O)n(C)cc(c23)-c2cc(CS(C)(=O)=O)ccc21` [Example 95, 2-methoxyphenyl 10-methyl-7-((methylsulfonyl)methyl)-11-oxo-10,11-dihydro-1H-1,4,10-triazadibenzo[cd,f]azulene-4(3H)-carboxylate], the pKi on BRD4 (BDI_K57-E168) is 8.66; on BRD4 (BDII_E352-M457), 8.60. The pEC50 in test [1] is 7.85.
In the case of `CC#CCOC(=O)N1Cc2c[nH]c3c(=O)n(C)cc(c23)-c2cc(CS(C)(=O)=O)ccc21` [Example 98, but-2-yn-1-yl 10-methyl-7-((methylsulfonyl)methyl)-11-oxo-10,11-dihydro-1H-1,4,10-triazadibenzo[cd,f]azulene-4(3H)-carboxylate], the figures for the pKi on BRD4 (BDI_K57-E168) and on BRD4 (BDII_E352-M457) were 8.63 and 8.50, respectively. Besides, the pEC50 in test [1] is 8.36.
As to `CCC(=O)N1Cc2c[nH]c3c(=O)n(C)cc(c23)-c2cc(CS(C)(=O)=O)ccc21` [Example 105, 10-methyl-7-((methylsulfonyl)methyl)-4-propionyl-3,4-dihydro-1H-1,4,10-triazadibenzo[cd,f]azulen-11(10H)-one], the results for the pKi at BRD4 (BDI_K57-E168) and at BRD4 (BDII_E352-M457) were 8.26 and 8.57, respectively. Further, the pEC50 in test [1] was 7.79.
In the case of `CC(C)CC(=O)N1Cc2c[nH]c3c(=O)n(C)cc(c23)-c2cc(CS(C)(=O)=O)ccc21` [Example 106, 10-methyl-4-(3-methylbutanoyl)-7-((methylsulfonyl)methyl)-3,4-dihydro-1H-1,4,10-triazadibenzo[cd,f]azulen-11(10H)-one], the pKi is 8.23 on BRD4 (BDI_K57-E168) and 8.72 at BRD4 (BDII_E352-M457). For the same molecule, the pEC50 in test [1] was 7.72.
On to `Cn1cc2c3c(c[nH]c3c1=O)CN(C(=O)CC(C)(C)C)c1ccc(CS(C)(=O)=O)cc1-2` [Example 107, 4-(3,3-dimethylbutanoyl)-10-methyl-7-((methylsulfonyl)methyl)-3,4-dihydro-1H-1,4,10-triazadibenzo[cd,f]azulen-11(10H)-one], for which the negative-log Ki (pKi) on BRD4 (BDI_K57-E168) is 8.19; on BRD4 (BDII_E352-M457) it was 8.42. For the same molecule, the pEC50 in test [1] was 8.15.
Turning to `Cn1cc2c3c(c[nH]c3c1=O)CN(C(=O)Cc1ccccc1)c1ccc(CS(C)(=O)=O)cc1-2` [Example 108, 10-methyl-7-((methylsulfonyl)methyl)-4-(2-phenylacetyl)-3,4-dihydro-1H-1,4,10-triazadibenzo[cd,f]azulen-11(10H)-one], the pKi at BRD4 (BDI_K57-E168) is 7.86; at BRD4 (BDII_E352-M457) it was 8.68. The pEC50 in test [1] is 6.78.
Turning to `COC(=O)CCC(=O)N1Cc2c[nH]c3c(=O)n(C)cc(c23)-c2cc(CS(C)(=O)=O)ccc21` [Example 111, methyl 4-(10-methyl-7-((methylsulfonyl)methyl)-11-oxo-10,11-dihydro-1H-1,4,10-triazadibenzo[cd,f]azulen-4(3H)-yl)-4-oxobutanoate], the pKi is 8.11 at BRD4 (BDI_K57-E168) and 8.48 at BRD4 (BDII_E352-M457). Moreover, the pEC50 in test [1] was 7.08.
Consider `Cn1cc2c3c(c[nH]c3c1=O)CN(C(=O)C1CC1)c1ccc(CS(C)(=O)=O)cc1-2` [Example 115, 4-(cyclopropanecarbonyl)-10-methyl-7-((methylsulfonyl)methyl)-3,4-dihydro-1H-1,4,10-triazadibenzo[cd,f]azulen-11(10H)-one], for which the pKi was 8.06 at BRD4 (BDI_K57-E168) and 8.57 at BRD4 (BDII_E352-M457). Besides, the pEC50 in test [1] is 8.11.
As for `Cn1cc2c3c(c[nH]c3c1=O)C(CN1C(=O)c3ccccc3C1=O)N(c1ccc(F)cc1F)c1ccc(CS(C)(=O)=O)cc1-2` (stereo not drawn) [Example 117, 2-((4-(2,4-difluorophenyl)-10-methyl-7-((methylsulfonyl)methyl)-11-oxo-3,4,10,11-tetrahydro-1H-1,4,10-triazadibenzo[cd,f]azulen-3-yl)methyl)isoindoline-1,3-dione], the negative-log Ki (pKi) was 7.14 at BRD4 (BDI_K57-E168) and 8.90 at BRD4 (BDII_E352-M457). Besides, the pEC50 in test [1] was less than 6.00.
With `CNC(=O)CCC1c2c[nH]c3c(=O)n(C)cc(c23)-c2cc(CS(C)(=O)=O)ccc2N1c1ccc(F)cc1F` (stereo not drawn) [Example 118, 3-(4-(2,4-difluorophenyl)-10-methyl-7-((methylsulfonyl)methyl)-11-oxo-3,4,10,11-tetrahydro-1H-1,4,10-triazadibenzo[cd,f]azulen-3-yl)-N-methylpropanamide], the pKi is 7.90 on BRD4 (BDI_K57-E168) and 8.86 on BRD4 (BDII_E352-M457). Moreover, in test [1], the pEC50 was 6.76.
On to `CN(C)C(=O)CCC1c2c[nH]c3c(=O)n(C)cc(c23)-c2cc(CS(C)(=O)=O)ccc2N1c1ccc(F)cc1F` (stereo not drawn) [Example 119, 3-(4-(2,4-difluorophenyl)-10-methyl-7-((methylsulfonyl)methyl)-11-oxo-3,4,10,11-tetrahydro-1H-1,4,10-triazadibenzo[cd,f]azulen-3-yl)-N,N-dimethylpropanamide], for which the pKi on BRD4 (BDI_K57-E168) was 7.92; on BRD4 (BDII_E352-M457), 9.22. Further, in test [1], the pEC50 was 6.87.
Take `Cn1cc2c3c(c[nH]c3c1=O)C(CCC(=O)N1CCOCC1)N(c1ccc(F)cc1F)c1ccc(CS(C)(=O)=O)cc1-2` (stereo not drawn) [Example 120, 4-(2,4-difluorophenyl)-10-methyl-7-((methylsulfonyl)methyl)-3-(3-morpholino-3-oxopropyl)-3,4-dihydro-1H-1,4,10-triazadibenzo[cd,f]azulen-11(10H)-one]: the pKi on BRD4 (BDI_K57-E168) was 8.03; on BRD4 (BDII_E352-M457), 8.80. Also, the pEC50 in test [1] is less than 6.00.
